From PubChem BioAssay AID2745 (NMMLSC, 2010) come the findings set out here.

This experiment in a line: LAP4-GFP modulation potency in yeast, dose response, cell-based, MLPCN hits, flow cytometry (AID 2745).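 Also: yeast exposed to compound for three hours at 30 degrees.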 To be noted: S. cerevisiae LAP4-GFP reporter, flow cytometry fluorescence; at 33 µM (top of the series).

“And” between values parts separate entries of the source, which are not always exact repeats. Identical values can stand only once. The source made the active and inactive calls. No rule for the calls is given here.

Turning to `O=C1c2sc3nc4ccccc4n3c2C(=O)N1c1ccccc1Cl`, the LAP4-GFP fluorescence (kMESF) was 3.64 kMESF (inactive).
To `O=C(/C=C/c1cccc(Cl)c1)c1nc2ccccc2[nH]1` belongs 4.71 kMESF (inactive); to `Clc1cnc(N/N=C/c2cccs2)c(Cl)c1`, 6.2 kMESF (inactive); to `Cc1nn2c(NCc3ccccn3)c3c(nc2c1-c1ccccc1)CCC3`, 7.76 kMESF (inactive).
Regarding `CC(C)C[C@]1(c2ccccc2)ON(c2ccccc2C(F)(F)F)C1=O`, the LAP4-GFP fluorescence (kMESF) was 2.53 kMESF (inactive).
On to `O=C1Nc2ccc(Br)cc2/C1=C/C(=O)c1ccc2c(c1)OCO2`, for which the LAP4-GFP fluorescence (kMESF) was 10.4 kMESF (inactive).
In the case of `CC(=O)Oc1cccc(N2C(=O)c3cccc4c([N+](=O)[O-])ccc(c34)C2=O)c1` it was 5.16 kMESF (inactive); in that of `CN(C)NC(=S)Nc1ccc(S(=O)(=O)N2CCCCC2)cc1`, 3.13 kMESF (inactive).
In the case of `CC(C)[C@]1(c2ccccc2)ON(c2ccccc2C(F)(F)F)C1=O` it was 2.53 kMESF (inactive); in that of `CCOc1ccc(N/N=C(/C#N)C(N)=O)cc1`, 9.57 kMESF (inactive); in that of `Cc1ccccc1[C@]1(C)ON(c2ccccc2C(F)(F)F)C1=O`, 3.24 kMESF (inactive).
On to `O=C1c2cccc3c([N+](=O)[O-])ccc(c23)C(=O)N1CCc1ccccn1`, for which the LAP4-GFP fluorescence (kMESF) is 7.15 kMESF (inactive).
In the case of `Oc1c(CN2CCN(c3ccc(F)cc3)CC2)cc(Cl)c2cccnc12` it was 13.1 kMESF (inactive); in that of `Oc1ccc(N=Nc2ccccc2)o1`, 18.8 kMESF (inactive).
Turning to `CCC(=O)Nc1ccc(NC(=O)c2cc3ccccc3o2)c(OC)c1`, the LAP4-GFP fluorescence (kMESF) is 3.41 kMESF (inactive).
To `O=C(/C=C/c1ccccc1Cl)c1ccccc(=O)c1O` belongs -5.15 kMESF (inactive).
To `CCOC(=O)CSC1=NC(=O)/C(=C/c2ccc(OC)cc2)S1` belongs 6.28 kMESF (inactive); to `CC1(C)OC(c2ccccc2)=C/C(=C/C=C2C(=O)NC(=S)NC2=O)O1`, 3.03 kMESF (inactive).
For `COc1cccc2c(=O)c(C(=O)NCc3cccs3)c[nH]c12`, the LAP4-GFP fluorescence (kMESF) is 2.13 kMESF (inactive).
Consider `COc1ccc2c(/C=C/c3cc[n+](C)cc3)c[nH]c2c1`, for which the LAP4-GFP fluorescence (kMESF) was 3.71 kMESF (inactive).
In the case of `O=C(c1ccc(Cl)cc1)N1CCN(c2cccc3[nH]ccc23)CC1` it was 6.45 kMESF (inactive); in that of `O=C(O)c1cccc(S(=O)(=O)Nc2ccc(S(=O)(=O)N3CCOCC3)cc2)c1`, 3.38 kMESF (inactive).
To `CC(C)[C@@]1(c2ccccc2)ON(c2ccccc2C(F)(F)F)C1=O` belongs 3.43 kMESF (inactive).
Regarding `Cc1ccc(NC(=O)CCc2ccccc2)cc1S(=O)(=O)N1CCOCC1`, the LAP4-GFP fluorescence (kMESF) was 3.23 kMESF (inactive).
For `O=C(O)c1ccccc1SC1CC(=O)N(c2ccc3c(c2)OCO3)C1=O` (stereo not drawn), the LAP4-GFP fluorescence (kMESF) is 5.3 kMESF (inactive).
To `Nc1nc(N)c2nc(CNc3ccc(C(=O)NC(CCC(=O)O)C(=O)O)cc3)cnc2n1` (stereo not drawn) belongs 3.13 kMESF (inactive); to `CC1=C/C(=N\OS(=O)(=O)c2ccccc2)C(C)=CC1=O`, 4.1 kMESF (inactive); to `O=c1c2cc(Br)ccc2nc(-c2ccc([N+](=O)[O-])cc2)n1O`, 6.81 kMESF (inactive).
For `Cc1ccc(/C=C2\C(=O)NC(=S)N(c3ccccc3F)C2=O)s1`, the LAP4-GFP fluorescence (kMESF) is 5.57 kMESF (inactive).
To `CCOc1ccccc1/C=c1\sc2ncnn2c1=O` belongs 19 kMESF (inactive); to `O=C1C2C3C=CC(CO)(O3)C2C(=O)N1c1ccccc1-c1ccccc1` (stereo not drawn), 5.75 kMESF (inactive).
In the case of `C[C@@]12C(=O)OC(=O)[C@]1(C)C1CCC2O1` it was 9.15 kMESF (inactive).
As for `Cc1ccc(C)c(/C=C/C(=O)c2ccccc(=O)c2O)c1`, the LAP4-GFP fluorescence (kMESF) is -0.2 kMESF (inactive).
For the compound `CCC(=O)Oc1oc(-c2ccccc2)nc1C=Nc1ccccc1OC`, the LAP4-GFP fluorescence (kMESF) was 4.64 kMESF (inactive).
To `Nc1ccc2ccc3cccc[n+]3c2c1` belongs 10.3 kMESF (inactive); to `Cc1cccc(NC(c2ccc(C)s2)c2ccc3ccc(C)nc3c2O)n1` (stereo not drawn), 16.8 kMESF (inactive); to `Cc1ccc(C(=O)O/N=C(\N)Cc2cccs2)c(Cl)c1`, 13.1 kMESF (inactive).
In the case of `COc1cc(/C=C2\C(=O)ON=C2c2ccccc2)cc(OC)c1OC` it was 6.41 kMESF (inactive); in that of `C#CCOCCOCCOCCNc1nc(N2CCN(C(=O)CCCCCCCCCCNC(=O)[C@H](CCCCN)n3cc(CCCC(=O)O)nn3)CC2)nc(N2CCN(C(=O)CCCCCCCCCCNC(=O)[C@H](CCCN=C(N)N)n3cc(C[C@@H](C)CC)nn3)CC2)n1`, 5.16 kMESF (inactive).
In the case of `Cc1ccc(N=Nc2ccc(O)c3ncccc23)cc1` it was 4.95 kMESF (inactive).
Turning to `Cc1ccc2[nH]c(C)c(/C=C/c3cc[n+](C)cc3)c2c1`, the LAP4-GFP fluorescence (kMESF) was 8.71 kMESF (inactive).
In the case of `O=c1cc(-c2ccccc2)cc(-c2ccccc2)n1O` it was 5.91 kMESF (inactive).
In the case of `COc1cc(C=C2C(=O)c3ccccc3C2=O)cc(OC)c1OC` it was 4.04 kMESF (inactive).
`COc1ccc(N=Cc2nc(-c3ccccc3)oc2OC(=O)c2ccccc2)cc1`: the LAP4-GFP fluorescence (kMESF) is 4.09 kMESF (inactive).
Consider `COc1ccc([C@]2(C(C)C)ON(c3ccccc3C(F)(F)F)C2=O)cc1`, for which the LAP4-GFP fluorescence (kMESF) is 4.65 kMESF (inactive).
In the case of `CC(=O)Oc1ccc(N2C(=O)C3C4C=CC(O4)C3C2=O)cc1` (stereo not drawn) it was 6.57 kMESF (inactive); in that of `O=C(Sc1cccc2cccnc12)c1ccccc1Br`, 18.8 kMESF (inactive); in that of `CCOC(=O)C1=C(O)c2ccccc2C(=O)/C1=C\c1ccc(C)cc1`, -35.8 kMESF (inactive).
In the case of `Cc1ccc(NC(=O)c2nc(S(=O)(=O)Cc3ccccc3)ncc2Cl)cc1` it was 9.01 kMESF (inactive); in that of `CC(=O)N(C(C)=O)c1ncnc2c1c(-c1ccc(Cl)cc1)nn2C(C)(C)C`, 3.97 kMESF (inactive); in that of `Cc1cc(C)nc(S/C=C/C(=O)c2ccccc2)n1`, 11 kMESF (inactive).
In the case of `CCCCc1ccc(/C=C2/C(=O)ON=C2c2ccccc2)s1` it was 3.67 kMESF (inactive).
On to `O=C(Oc1oc(-c2ccco2)nc1C=Nc1ccccc1)c1ccco1`, for which the LAP4-GFP fluorescence (kMESF) is 23.7 kMESF (inactive).
To `CCOC(=O)c1c(C)oc2c1c(C(c1cccnc1)N1CCOCC1)c(O)c1ccccc12` (stereo not drawn) belongs 4.07 kMESF (inactive); to `COc1ccccc1NC1=C(Cl)C(=O)N(c2ccccc2)C1=O`, 2.98 kMESF (inactive); to `COc1ccc([C@@]2(C(C)C)ON(c3ccccc3C(F)(F)F)C2=O)cc1`, 4.38 kMESF (inactive).
To `CC[C@]1(c2ccccc2OC)ON(c2ccccc2C(F)(F)F)C1=O` belongs 7.52 kMESF (inactive).
On to `O/C=c1\ccc2cccc3nc(C(F)(F)F)nc1c23`, for which the LAP4-GFP fluorescence (kMESF) is 15.8 kMESF (inactive).
To `COc1ccc(N2C(=O)CC(Sc3ncn[nH]3)C2=O)c(OC)c1` (stereo not drawn) belongs 13.7 kMESF (inactive); to `COc1ccc(C2=CC3=C(Br)C(=O)C(C)(O)C(=O)C3=CO2)cc1` (stereo not drawn), 0.34 kMESF (inactive).
To `O=C(COc1c(Br)cc(Br)c2cccnc12)N1CCc2ccccc2C1` belongs 12.3 kMESF (inactive); to `CC(=O)CSc1ncnc2c1cnn2-c1ccccc1`, 3.61 kMESF (inactive); to `Cc1cc(/C=C2/SC(=S)N(c3cccc(Cl)c3)C2=O)c(C)n1-c1cccnc1`, 10.5 kMESF (inactive).
`CC(C)(C)c1cc(C(c2cccnc2)N2CCN(CCO)CC2)cc(C(C)(C)C)c1O` (stereo not drawn): the LAP4-GFP fluorescence (kMESF) was 7.26 kMESF (inactive).
Take `COc1cc(/C=C2/C(=O)ON=C2c2ccccc2)ccc1O`: the LAP4-GFP fluorescence (kMESF) was 9.39 kMESF (inactive).
In the case of `N#Cc1ccc(N=c2ssnc2Cl)cc1` it was 9.41 kMESF (inactive); in that of `O=C(/C=C/c1cccc([N+](=O)[O-])c1)c1ccc([N+](=O)[O-])o1`, 2.78 kMESF (inactive); in that of `Cc1ccc(S(=O)(=O)/N=C(\Sc2ccccc2)c2ccccc2)cc1`, 6.11 kMESF (inactive).
To `CCN(CC)c1ccc(/C=C2\C(=O)c3ccc(C(=O)O)cc3C2=O)cc1` belongs 392 kMESF (inactive).
As for `Cc1[nH][nH]c(=O)c1C(c1ccc(-c2ccc(Cl)cc2)o1)c1c(C)[nH][nH]c1=O`, the LAP4-GFP fluorescence (kMESF) is 6.67 kMESF (inactive).
To `CC[C@@]1(c2ccccc2OC)ON(c2ccccc2C(F)(F)F)C1=O` belongs 6.51 kMESF (inactive); to `CC(C)C(=O)NC(c1cccs1)c1cc([N+](=O)[O-])c2cccnc2c1O` (stereo not drawn), 10.5 kMESF (inactive).
To `COc1ccccc1C(=O)NNC(=S)NC(=O)c1cccs1` belongs 6.21 kMESF (inactive); to `O=C(/C=C/c1ccccc1)c1cc(Br)ccc(=O)c1O`, -10.1 kMESF (inactive); to `CC(=O)OC[C@]12CC[C@H]3[C@@](C)(CC[C@H]4C(C)(C)CCC[C@]34C)[C@@H]1C[C@H](C1=CC(=O)O[C@@H]1OC(C)=O)O2`, 13.6 kMESF (inactive).
As to `O=C(OCC(=O)N1CCN(C(=O)c2ccco2)CC1)c1cc(-c2ccccc2)nc2ccccc12`, the LAP4-GFP fluorescence (kMESF) is 10.4 kMESF (inactive) and 6.1 kMESF (inactive).
In the case of `O=[N+]([O-])c1c(Nc2ccccn2)cc(Cl)c2nonc12` it was 36.2 kMESF (inactive).
To `O=C1C(=O)c2ccccc2-c2ccccc21` belongs 5.27 kMESF (inactive).
